A short description of the assay: High fat diet-induced weight gain in mice, osmotic minipump treatment. It counts as in vivo. As for the experimental part: FIG. 6 provides a bar graph showing a reduction in high fat diet-induced weight gain in mice by treatment with VU0055768. Wild type 12 week old male C57BL/6J mice were placed on a high fat diet for 5 days. Mice were then implanted subcutaneously with Alzet csmotic minipumps filled with vehicle (25% DMSO, 25% saline, 50% EtOH; n=6) or VU0055768 (25% compound in DMSO, 25% saline, 50% EtOH, n=5) so as to deliver 2.5 mg/kg/day of VU0055768. Mice were maintained on ad libitum access to water and high fat chow, and body weights were measured at the end of an additional 9 days. Bars indicate the mean and standard error of the data, and show a greater than 50% reduction in weight gain as a result of treatment with VU0055768
Eleven 12 weeks old Wt C57 mice were placed on high fat diet for 5 days. Osmotic pumps were filled with vehicle (25% DMSO, 25% saline, 50% EtOH) or VU0055768 (25% compound in DMSO, 25% saline, 50% EtOH) as to deliver 2.5 mg/kg/day, and were then inserted subcutaneously (6 vehicle, 5 compound) into the mice. The mice were fed ad-libidum with high fat diet. Mouse and food weight was measured daily. Statistical analysis of the results was t-test.

Take `NCCc1c(-c2ccccc2)n(-c2ccccc2)c2ccccc12` [VU0055768]: under “C57BL/6J mice on high fat diet, 2.5 mg/kg/day subcutaneous osmotic minipump, body weights after additional 9 days, vs vehicle”, the “reduction in weight gain” value is given as “greater than 50%”. The weight gain entry (Wt C57 mice on high fat diet, 2.5 mg/kg/day subcutaneous osmotic pump, t-test vs vehicle) is on record as “significantly reduced weight gain”.

The values are drawn from patent US9744171B2, “Positive allosteric modulators for melanocortin receptors” (Vanderbilt University, priority 2012, dated 2017).
